The results in this text go back to PubChem BioAssay AID1918934 (Molecular Pharmacology Branch, DTP, NCI, 2023).

“And” between values parts separate entries of the source, which are not always exact repeats. Identical values can stand only once.

This assay has as its system 292921-168-R-J2-PDC complex spheroid viability. Nature of the assay: Anticancer human tumor 292921-168-R-J2-PDC patient-derived pancreatic carcinoma cell line growth inhibition. The conditions noted are these: for viability, T/C: stronger effect = lower value. In a few lines: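 Drug combinations with the LSD1 inhibitor iadademstat tested on tumor cells co-cultured as spheroids with endothelial cells and mesenchymal stem cells. Concentrations descended in half-log increments from clinical Cmax or 10 microM.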

Where [1] appears, read: curve of first compound, second compound 0.1 µM.
Setting [2] is: curve of first compound, second compound 0.316 µM.
Setting [3] is: curve of first compound, second compound 1 µM.
[4] abbreviates: curve of first compound, second compound 3.16 µM.
[5] abbreviates: curve of first compound, second compound 10 µM.
Setting [6] is: second compound 0.1 µM, first compound 0.0316 µM.
Where [7] appears, read: second compound 0.1 µM, first compound 0.1 µM.
The mark [8] stands for this setting: second compound 0.316 µM, first compound 0.0316 µM.
Where [9] appears, read: second compound 0.316 µM, first compound 0.1 µM.
Where [10] appears, read: second compound 1 µM, first compound 0.0316 µM.
Where [11] appears, read: second compound 1 µM, first compound 0.1 µM.
The mark [12] stands for this setting: second compound 3.16 µM, first compound 0.0316 µM.
Where [13] appears, read: second compound 3.16 µM, first compound 0.1 µM.
[14] abbreviates: second compound 10 µM, first compound 0.0316 µM.
The mark [15] stands for this setting: second compound 10 µM, first compound 0.1 µM.
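Note: seven day compound exposure before luminescent viability read.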
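Throughout, for viability, T/C: 100% = DMSO vehicle control wells.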

A word on the viability, T/C: it is the ratio of treated to control. One may read the IC50 as the concentration that gives 50% inhibition. As to `Nc1ccccc1NC(=O)c1ccc(CNC(=O)OCc2cccnc2)cc1`, the viability, T/C by setting is: (compound 0.00949 µM) 67.9% and 65.7%; (compound 0.03 µM) 45.2% and 49.2%; (compound 0.0949 µM) 31% and 31.7%; (compound 0.3 µM) 17.2% and 19.8%; (compound 0.949 µM) 4.09% and 5.39%; (compound 3 µM) 0.29% and 0.27%. Further, where the note is “curve of compound”, the IC50 was 24.9 nM and 28.3 nM.

As to `COc1ccc([C@@H](O)c2cc(-c3ncnc4cc(N5CCOCC5)ccc34)c(F)cc2Cl)nn1`, the viability, T/C is, setting by setting: (compound 0.0316 µM) 101% and 104%; (compound 0.1 µM) 95.7% and 82.2%; (compound 0.316 µM) 61.2% and 71.4%; (compound 1 µM) 37.6% and 42.1%; (compound 3.16 µM) 24.7% and 24.6%; (compound 10 µM) 11.6% and 13.1%. Besides, the IC50 (curve of compound) is 590 nM and 738 nM.

As to `Cn1ncnc1C1c2n[nH]c(=O)c3cc(F)cc(c23)NC1c1ccc(F)cc1` (centres undefined) + NC1CC1c1ccc(-c2cccc(O)c2)cc1, the half-inhibitory concentration (IC50) is over 100 nM under setting [1]; over 100 nM under setting [2]; over 100 nM under setting [3]; over 100 nM under setting [4]; 6.46 nM under setting [5]. The viability, T/C by setting is: (second compound 0.1 µM, first compound 0.000316 µM) 87.2%; (second compound 0.1 µM, first compound 0.001 µM) 83.4%; (second compound 0.1 µM, first compound 0.00316 µM) 76.7%; (second compound 0.1 µM, first compound 0.01 µM) 71.2%; under setting [6], 67.3%; under setting [7], 65.5%. Besides, the viability, T/C reads like this: (second compound 0.316 µM, first compound 0.000316 µM) 71%; (second compound 0.316 µM, first compound 0.001 µM) 75%; (second compound 0.316 µM, first compound 0.00316 µM) 67%; (second compound 0.316 µM, first compound 0.01 µM) 63.4%; under setting [8], 57.8%; under setting [9], 62.2%. Also, the viability, T/C runs as follows: (second compound 1 µM, first compound 0.000316 µM) 72.2%; (second compound 1 µM, first compound 0.001 µM) 62.8%; (second compound 1 µM, first compound 0.00316 µM) 67.3%; (second compound 1 µM, first compound 0.01 µM) 58.1%; under setting [10], 64%; under setting [11], 60.3%. In addition, the viability, T/C is 69.2% (second compound 3.16 µM, first compound 0.000316 µM); 64.2% (second compound 3.16 µM, first compound 0.001 µM); 59.7% (second compound 3.16 µM, first compound 0.00316 µM); 54.5% (second compound 3.16 µM, first compound 0.01 µM); 50.5% under setting [12]; 52.5% under setting [13]. The viability, T/C (second compound 10 µM, first compound 0.000316 µM) is 51.9%; the viability, T/C (second compound 10 µM, first compound 0.001 µM) was 58%; the viability, T/C (second compound 10 µM, first compound 0.00316 µM) was 51.9%; the viability, T/C (second compound 10 µM, first compound 0.01 µM) was 48.3%; the viability, T/C under setting [14] is 43.6%; the viability, T/C under setting [15] was 43.6%.

As for `CC1COCCN1c1cc(C2(S(C)(=N)=O)CC2)nc(-c2ccnc3[nH]ccc23)n1` (centres undefined) + NC1CCC(NC2CC2c2ccccc2)CC1, the IC50 came out at 351 nM under setting [1]; 212 nM under setting [2]; 200 nM under setting [3]; 163 nM under setting [4]; 128 nM under setting [5]. Besides, the viability, T/C by setting is: under setting [6], 65.1%; under setting [7], 64.5%; (second compound 0.1 µM, first compound 0.316 µM) 52.3%; (second compound 0.1 µM, first compound 1 µM) 24.9%; (second compound 0.1 µM, first compound 3.16 µM) 12.7%; (second compound 0.1 µM, first compound 10 µM) 11.4%. Besides, the viability, T/C reads like this: under setting [8], 62.2%; under setting [9], 56.7%; (second compound 0.316 µM, first compound 0.316 µM) 46.5%; (second compound 0.316 µM, first compound 1 µM) 24.5%; (second compound 0.316 µM, first compound 3.16 µM) 14.3%; (second compound 0.316 µM, first compound 10 µM) 12.1%. Also, the viability, T/C was 54.1% under setting [10]; 56.1% under setting [11]; 46.6% (second compound 1 µM, first compound 0.316 µM); 23.7% (second compound 1 µM, first compound 1 µM); 12.7% (second compound 1 µM, first compound 3.16 µM); 11.8% (second compound 1 µM, first compound 10 µM). Moreover, the viability, T/C was 61% under setting [12]; 51.6% under setting [13]; 44.8% (second compound 3.16 µM, first compound 0.316 µM); 22.6% (second compound 3.16 µM, first compound 1 µM); 13.3% (second compound 3.16 µM, first compound 3.16 µM); 12.7% (second compound 3.16 µM, first compound 10 µM). Moreover, the viability, T/C was 56.3% under setting [14]; 52% under setting [15]; 41.2% (second compound 10 µM, first compound 0.316 µM); 24.2% (second compound 10 µM, first compound 1 µM); 14% (second compound 10 µM, first compound 3.16 µM); 12.1% (second compound 10 µM, first compound 10 µM).

Turning to `CCc1c2c(nc3ccc(O)cc13)-c1cc3c(c(=O)n1C2)COC(=O)[C@]3(O)CC` + NC1CC1c1ccc(-c2cccc(O)c2)cc1, the IC50 was under 0.949 nM under setting [1]; under 0.949 nM under setting [2]; under 0.949 nM under setting [3]; under 0.949 nM under setting [4]; under 0.949 nM under setting [5]. Further, the viability, T/C reads like this: (second compound 0.1 µM, first compound 0.000949 µM) 4.87%; (second compound 0.1 µM, first compound 0.003 µM) 2.64%; (second compound 0.1 µM, first compound 0.00949 µM) 1.33%; (second compound 0.1 µM, first compound 0.03 µM) 1.09%; (second compound 0.1 µM, first compound 0.0949 µM) 0.85%; (second compound 0.1 µM, first compound 0.3 µM) 1.26%. The viability, T/C was 4.37% (second compound 0.316 µM, first compound 0.000949 µM); 2.24% (second compound 0.316 µM, first compound 0.003 µM); 1.21% (second compound 0.316 µM, first compound 0.00949 µM); 0.88% (second compound 0.316 µM, first compound 0.03 µM); 1.1% (second compound 0.316 µM, first compound 0.0949 µM); 1.26% (second compound 0.316 µM, first compound 0.3 µM). For the same compound, the viability, T/C runs as follows: (second compound 1 µM, first compound 0.000949 µM) 4.54%; (second compound 1 µM, first compound 0.003 µM) 2.69%; (second compound 1 µM, first compound 0.00949 µM) 1.23%; (second compound 1 µM, first compound 0.03 µM) 1.12%; (second compound 1 µM, first compound 0.0949 µM) 1.21%; (second compound 1 µM, first compound 0.3 µM) 1.22%. Moreover, the viability, T/C (second compound 3.16 µM, first compound 0.000949 µM) is 4.42%; the viability, T/C (second compound 3.16 µM, first compound 0.003 µM) was 2.55%; the viability, T/C (second compound 3.16 µM, first compound 0.00949 µM) was 1.18%; the viability, T/C (second compound 3.16 µM, first compound 0.03 µM) is 0.79%; the viability, T/C (second compound 3.16 µM, first compound 0.0949 µM) was 1.06%; the viability, T/C (second compound 3.16 µM, first compound 0.3 µM) was 1.13%. The viability, T/C (second compound 10 µM, first compound 0.000949 µM) is 5.79%; the viability, T/C (second compound 10 µM, first compound 0.003 µM) is 3.19%; the viability, T/C (second compound 10 µM, first compound 0.00949 µM) is 1.1%; the viability, T/C (second compound 10 µM, first compound 0.03 µM) was 1.82%; the viability, T/C (second compound 10 µM, first compound 0.0949 µM) was 2.43%; the viability, T/C (second compound 10 µM, first compound 0.3 µM) was 1.15%.
